{
  "source": "patent US9205119B2",
  "about": "“Neuroprotective compositions and methods” (Rutgers, The State University of New Jersey, priority 2009, dated 2015)",
  "type_in_all_cases": "in vivo",
  "key": {"[1]": {"system": "pMCAO mice (permanent middle cerebral artery occlusion, focal cerebral ischemia)", "assay": "TTC staining to determine infarct volume after pMCAO", "conditions": "30 mg/kg intraperitoneally 2 hr before and 6 hr after pMCAO, measured 24 hr post-pMCAO by TTC staining", "protocol": "Human stroke typically involves disruption of blood flow to a specific region supplied often by the middle cerebral artery (MCA). The classical animal model of focal ischemia, MCA occlusion (MCAO), produces the problem of long-term vessel blockade, simulating what often occurs in human stroke. We have induced focal cerebral ischemia in mice by cauterizing the MCA. To evaluate the acute injury induced by MCAO, animals were euthanized at 24 h after MCAO, and the infarct volume was determined using 2,3,5-triphenyltetrazolium chloride (TTC) staining. (Rajanikant, G. K., et al., Stroke, 38:3023-31 (2007)). In brief, 24 hours after pMCAO, animals were deeply anesthetized with an injection of pentobarbital (70 mg/kg, i.p.) and subjected to intracardiac perfusion with 100 mL of isotonic saline delivered through an electronic pump at 100 mm Hg. The head was then removed with a small animal guillotine and the brain carefully dissected out en bloc. After a brief (<1 minute) period of cooling on a bed of ice, the brain was sliced coronally at 1-mm intervals. […] The infarct area was then quantified from the scanned images using the NIH Image J analysis software (version 1.38). […] Vehicle or various doses (3, 30, 50 or 90 mg/kg) of KB-3 or KB-3a were administered intraperitoneally 2 hr before and 6 hr after pMCAO and the infarct volume was measured at 24 hr post-pMCAO by TTC staining. […]"}, "pMCAO mice [2]": {"system": "pMCAO mice", "assay": "Elevated body-swing test (EBST) after pMCAO", "conditions": "intraperitoneally 2 hr pre- and 6 hr post-pMCAO, 24 hr after ischemia, vehicle 66.4±4.9, pre-operated 50.55±1.05", "protocol": "In addition, the elevated body-swing test (EBST), described in detail by Borlongan et al, was used by us to assess asymmetric motor behavior. (Borlongan, C. V. and Sanberg, P. R., J. Neurosci., 15:5372-8 (1995)). Mice were held by the base of the tail and elevated about 10 cm from the tabletop. The direction of body swing, defined as an upper body turn of >10° to either side, was recorded for 1 min during each of three trials. The number of left and right turns was counted, and the percentage of turns made to the side contralateral to the ipsilateral hemisphere (% right-biased swing) was determined. (Ishibashi, S., et al., Exp. Neurol., 207:302-13 (2007)). The EBST was used to detect asymmetry in motor behavior at 24 hr post-pMCAO."}, "[3]": {"system": "pMCAO mice (ipsilateral cortex degenerating neurons)", "assay": "Fluoro Jade B staining to determine degenerating neurons after pMCAO", "conditions": "30 mg/kg 2 hr before and 6 hr after pMCAO, 24 h after MCAO", "protocol": "We used brain coronal sections […] for Fluoro Jade B staining to determine degenerating neurons, as previously described. (Rajanikant, G. K., et al., Stroke, 38:3023-31 (2007)). In brief, the brain sections on glass slides were dried overnight, immersed for 3 min in 100% ethanol, for 1 min in 70% ethanol, and for 1 min in distilled water, and then incubated in a solution containing 0.01% Fluoro-Jade B (Histo-Chem Inc., Jefferson, Ark.) and 0.1% acetic acid (1:10) for 30 min on a shaker. After three 10-min washes, the slides were coverslipped, and labeled sections were visualized with a confocal laser-scanning microscope."}, "pMCAO mice [4]": {"system": "pMCAO mice", "assay": "Neurological deficit scoring (18-point scale, Garcia) after pMCAO", "conditions": "30 mg/kg, 24 hr post-pMCAO, mean±SEM, vehicle 12.3±0.48, preoperative 17.5±0.29", "protocol": "To determine whether KB-3a-induced reduction in infarct volume and neuronal degeneration could translate into functional recovery, neurological evaluations were performed right before the surgery and 24 hr following pMCAO. The neurobehavioral deficit scoring system consists of six tests as previously described in detail, which include: (1) spontaneous activity, (2) symmetry of four limb movement, (3) forepaw outstretching while held by tail, (4) climbing wall of wire cage, (5) reaction to touch on either side of trunk, and (6) response to vibrissae touch. (See Garcia, J. H., et al., Stroke, 26:627-34 (1995)). The neurological score given to each mouse at the completion of the evaluation is the summation of all six individual test scores. The minimum neurological score is 3 and the maximum is 18. Using the 18 point-based scale, the normal mean preoperative neurological score was 17.5±0.29."}},
  "data": [
    {"compound": "CC(C)=CCC/C(=C/CC/C(C)=C/CC/C(C)=C/Cc1cc(O)cc(C)c1O)C(=O)O", "note": "[KB-3, sargahydroquinoic acid]", "values": [
      {"measurement": "reduction in infarct volume compared with vehicle-treated group", "setting": "[1]", "result": "approximately 48%"}
    ]},
    {"compound": "CC(=O)Oc1cc(C)c(OC(C)=O)c(CC=C(C)CCC=C(C)CCC=C(CCC=C(C)C)C(=O)O)c1", "note": "[KB-3a, 1,4-diacetyl-sargahydroquinoic acid]", "values": [
      {"measurement": "percent right-biased swing (EBST)", "setting": "pMCAO mice [2]", "result": "52.16±1.8", "unit": "%"},
      {"measurement": "reduction of Fluoro-Jade B staining within the ipsilateral cortex compared to vehicle control", "setting": "[3]", "result": "approximately 50%"},
      {"measurement": "neurological score (18 point-based scale)", "setting": "pMCAO mice [4]", "result": "17±0.41"},
      {"measurement": "reduction in infarct volume compared with vehicle-treated group", "setting": "[1]", "result": "approximately 54%"}
    ]}
  ]
}
